Pest or weed control data for 25 molecules are collected here from patent US20150344466A1 (SUMITOMO CHEMICAL COMPANY, LIMITED, priority 2013, published 2015).

Type in all cases: in vivo
Assay [1] relates to Blattella germanica. In words: Knockdown spray test on Blattella germanica, 2.0% w/v oil formulation (Test Example 1). Particulars: topical, 0.25 h, active ingredient 2.0% w/v, 1.5 ml sprayed, within 15 minutes, read-out: knockdown rate of the test insects within 15 minutes. As to the method:
Ten Blattella germanica (5 males and 5 females) were released in a test container (8.75 cm in diameter, 7.5 cm in height, and the bottom made of 16 mesh metallic wire) with the inner wall on which butter was applied, and the container was placed on the bottom of a test chamber (bottom: 46 cm×46 cm, height: 70 cm). From a height of 60 cm above the upper surface of the container, 1.5 ml of the test drug solution was sprayed using a spray gun (a spraying pressure of 0.42 kg/cm^2). Thirty seconds after spraying, the container was taken out from the test chamber, and after 2 minutes, 5 minutes and 15 minutes, the number of knocked-down insects was counted to obtain a knockdown rate. The knockdown rate was calculated by the following equation.
Knockdown Rate (%)=(Number of Knocked-down Insects/Number of Tested Insects)×100

The next assay has as its system Culex pipiens pallens. In words: Knockdown spray test on adult Culex pipiens pallens (Test Example 4). Particulars: topical, 0.25 h, active ingredient 0.1% w/v, 0.5 ml sprayed, within 15 minutes, read-out: knockdown rate of the test insects within 15 minutes. In short, it runs like this:
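Ten adult mosquitoes in a gauze-covered cup inside a 46×46×70 cm chamber were sprayed with 0.5 ml of test solution from 30 cm at 0.4 kg/cm^2. The cup was removed at once, and knocked-down insects were counted at 2, 5 and 15 min; knockdown rate (%) = knocked-down/tested ×100.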

For assay [2], the system named is Blattella germanica. In words: Knockdown spray test on Blattella germanica, 0.1% w/v oil formulation (Test Example 2). To be noted: topical, 0.25 h, active ingredient 0.1% w/v, 1.5 ml sprayed, within 15 minutes, read-out: knockdown rate of the test insects within 15 minutes. In short, it runs like this: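 Ten German cockroaches (5 males, 5 females) in a mesh-bottomed, butter-walled container were sprayed with 1.5 ml test solution from 60 cm at 0.42 kg/cm^2 inside a chamber.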

The subject of a further assay is Plutella xylostella. As to the kind of experiment: Foliar spray test on Plutella xylostella on cabbage (Test Example 10). Particulars: 120 h, third instar larvae of Plutella xylostella on cabbage, 500 ppm spray 20 ml/cup, after five days, read-out: controlling value. The method, then:
On the other hand, cabbage was planted in a polyethylene cup, and grown until the third-fourth true leaf was spread. The test spray solution was sprayed to the cabbage at a ratio of 20 ml/cup. After the drug solution sprayed on the cabbage was dried, 10 third instar larvae of Plutella xylostella were allowed to parasitize the cabbage. After five days, the number of Plutella xylostella was investigated, and the controlling value was calculated according to the following standard. Controlling value (%)={1−(Cb×Tai)/(Cai×Tb)}×100 In the equation, the symbols represent as follows. Cb: the number of insects in a non-treated section before treatment Cai: the number of insects in a non-treated section on observation Tb: the number of insects in a treated section before treatment Tai: the number of insects in a treated section on observation

The test system of the next assay is Musca domestica. As to the kind of experiment: Filter paper/sucrose bait death rate test on Musca domestica (Test Example 5). To be noted: female imagoes of Musca domestica, 0.7 ml on filter paper, after 24 hours. The method, then: A filter paper having a diameter of 5.5 cm was spread on the bottom of a polyethylene cup having the same diameter and 0.7 ml of the test drug solution was added dropwise onto the filter paper, and 30 mg of sucrose was uniformly placed as bait.
Into the polyethylene cup, 10 female imagoes of Musca domestica were released, and the cup was sealed with a lid. After 24 hours, the life and death of Musca domestica was examined, and the death rate was calculated. The death rate was calculated by the following equation.
Death rate (%)=(Number of dead insects/Number of tested insects)×100

Take `CCCc1cc(C(=O)NCC2CCOC2)no1` (stereo not drawn) [(10), N-(tetrahydrofuran-3-ylmethyl)-5-propylisoxazole-3-carboxamide]: the pest or weed control at 2 % strength with Blattella germanica [1] was not below 80%.
On to `CCCCCc1cc(C(=O)NCC2CCOC2)no1` (stereo not drawn) [(12), N-(tetrahydrofuran-3-ylmethyl)-5-pentylisoxazole-3-carboxamide], for which the pest or weed control at 2 % strength in the assay on Blattella germanica [1] was not below 80%. The pest or weed control at 0.1 % strength with Culex pipiens pallens was not below 80%.
For `O=C(NCC1CCOC1)c1cc(COC2CCCC2)on1` (stereo not drawn) [(19), N-(tetrahydrofuran-3-ylmethyl)-5-cyclopentyloxymethylisoxazole-3-carboxamide], the pest or weed control at 2 % strength with Blattella germanica [1] was not below 80%.
For `O=C(NCC1CCOC1)c1cc(COCCc2ccccc2)on1` (stereo not drawn) [(25), N-(tetrahydrofuran-3-ylmethyl)-5-(2-phenylethyl)oxymethylisoxazole-3-carboxamide], in the assay on Blattella germanica [1], the pest or weed control at 2 % strength is not below 80%. For the same molecule, the pest or weed control at 0.1 % strength with Culex pipiens pallens was not below 80%.
With `CC(OCc1cc(C(=O)NCC2CCOC2)no1)c1ccc2ccccc2c1` (stereo not drawn) [(28), N-(tetrahydrofuran-3-ylmethyl)-5-[1-(2-naphthyl)ethyl]oxymethylisoxazole-3-carboxamide], the pest or weed control at 2 % strength in the assay on Blattella germanica [1] is not below 80%. In addition, the pest or weed control at 0.1 % strength in the assay on Culex pipiens pallens was not below 80%.
For the molecule `COCc1c(F)c(F)c(COCc2cc(C(=O)NCC3CCOC3)no2)c(F)c1F` (stereo not drawn) [(29), N-(tetrahydrofuran-3-ylmethyl)-5-(4-methoxymethyl-2,3,5,6-tetrafluorobenzyl)oxymethylisoxazole-3-carboxamide], the pest or weed control at 2 % strength in the assay on Blattella germanica [1] was not below 80%. In addition, the pest or weed control at 0.1 % strength with Culex pipiens pallens is not below 80%.
With `O=C(NCC1CCCO1)c1cc(COCc2ccccc2)on1` (stereo not drawn) [(32), N-(tetrahydrofuran-2-ylmethyl)-5-benzyloxymethylisoxazole-3-carboxamide], the pest or weed control at 2 % strength in the assay on Blattella germanica [1] is not below 80%. Besides, the pest or weed control at 0.1 % strength in the assay with Culex pipiens pallens was not below 80%.
As for `O=C(NCC1CCCOC1)c1cc(COCc2ccccc2)on1` (stereo not drawn) [(37), N-(tetrahydropyran-3-ylmethyl)-5-benzyloxymethylisoxazole-3-carboxamide], the pest or weed control at 2 % strength in the assay on Blattella germanica [1] was not below 80%. In the assay on Culex pipiens pallens, the pest or weed control at 0.1 % strength was not below 80%.
As to `CCC1(CNC(=O)c2cc(COCc3ccccc3)on2)COCOC1` [(38), N-[5-ethyl-5-(1,3-dioxanylmethyl)]-5-benzyloxymethylisoxazole-3-carboxamide], the pest or weed control at 2 % strength in the assay on Blattella germanica [1] is not below 80%. Besides, in the assay on Culex pipiens pallens, the pest or weed control at 0.1 % strength is not below 80%.
`Cc1cccc(COCc2cc(C(=O)NCC3CCOCC3)no2)c1` [(83), N-(tetrahydropyran-4-ylmethyl)-5-(3-methylbenzyloxymethyl)isoxazole-3-carboxamide]: the pest or weed control at 0.1 % strength with Blattella germanica [2] and in the assay on Culex pipiens pallens was not below 80% in each case. Further, in the assay on Plutella xylostella, the pest or weed control at 500 ppm is not below 90%.
As for `Cc1ccc(COCc2cc(C(=O)NCC3CCOC3)no2)cc1` (stereo not drawn) [(97), N-(tetrahydrofuran-3-ylmethyl)-5-(4-methylbenzyloxymethyl)isoxazole-3-carboxamide], the pest or weed control at 0.1 % strength with Blattella germanica [2] and in the assay with Culex pipiens pallens was not below 80% in each case. Further, the pest or weed control at 500 ppm with Plutella xylostella was not below 90%.
For the molecule `Cc1ccc(COCc2cc(C(=O)NCC3CCOCC3)no2)cc1` [(98), N-(tetrahydropyran-4-ylmethyl)-5-(4-methylbenzyloxymethyl)isoxazole-3-carboxamide], the pest or weed control at 0.1 % strength with Blattella germanica [2] and with Culex pipiens pallens was not below 80% in each case. The pest or weed control at 500 ppm with Plutella xylostella was not below 90%.
As for `COc1ccc(COCc2cc(C(=O)NCC3CCOCC3)no2)cc1` [(100), N-(tetrahydropyran-4-ylmethyl)-5-(4-methoxybenzyloxymethyl) isoxazole-3-carboxamide], the pest or weed control at 0.1 % strength in the assay with Blattella germanica [2] and in the assay with Culex pipiens pallens was not below 80% in each case. Moreover, the pest or weed control at 500 ppm in the assay on Musca domestica and with Plutella xylostella was not below 90% each time.
For the molecule `CSc1ccc(COCc2cc(C(=O)NCC3CCOC3)no2)cc1` (stereo not drawn) [(103), N-(tetrahydrofuran-3-ylmethyl)-5-(4-methylthiobenzyloxymethyl)isoxazole-3-carboxamide], the pest or weed control at 0.1 % strength with Blattella germanica [2] and with Culex pipiens pallens was not below 80% each time. In addition, in the assay on Plutella xylostella, the pest or weed control at 500 ppm is not below 90%.
`CSc1ccc(COCc2cc(C(=O)NCC3CCOCC3)no2)cc1` [(104), N-(tetrahydropyran-4-ylmethyl)-5-(4-methylthiobenzyloxymethyl)isoxazole-3-carboxamide]: the pest or weed control at 0.1 % strength with Blattella germanica [2] and with Culex pipiens pallens was not below 80% each time. Moreover, the pest or weed control at 500 ppm with Plutella xylostella was not below 90%.
Turning to `O=C(NCC1CCOC1)c1cc(COCc2cccc(Oc3ccccc3)c2)on1` (stereo not drawn) [(114), N-(tetrahydrofuran-3-ylmethyl)-5-(3-phenoxybenzyloxymethyl) isoxazole-3-carboxamide], the pest or weed control at 2 % strength in the assay with Blattella germanica [1] was not below 80%. Moreover, in the assay with Culex pipiens pallens, the pest or weed control at 0.1 % strength was not below 80%.
Turning to `O=C(NCC1CCOC1)c1cc(COCCOc2ccccc2)on1` (stereo not drawn) [(149), N-(tetrahydrofuran-3-ylmethyl)-5-(2-phenoxyethoxymethyl)isoxazole-3-carboxamide], the pest or weed control at 0.1 % strength in the assay on Blattella germanica [2] and with Culex pipiens pallens was not below 80% in each case. In the assay on Blattella germanica [1], the pest or weed control at 2 % strength was not below 80%.
With `Cc1c(C(=O)NCC2CCOC2)noc1COCc1ccccc1F` (stereo not drawn) [(286), N-(tetrahydrofuran-3-ylmethyl)-5-(2-fluorobenzyloxymethyl)-4-methylisoxazole-3-carboxamide], the pest or weed control at 0.1 % strength with Blattella germanica [2] and with Culex pipiens pallens was not below 80% in each case. Moreover, the pest or weed control at 500 ppm with Musca domestica is not below 90%.
As for `O=C(NCC1CCOC1)c1cc(Cc2cc(F)cc(F)c2)on1` (stereo not drawn) [(305), N-(tetrahydrofuran-3-ylmethyl)-5-(3,5-difluorobenzyl)isoxazole-3-carboxamide], the pest or weed control at 0.1 % strength with Blattella germanica [2] and in the assay on Culex pipiens pallens was not below 80% in each case. In addition, in the assay with Musca domestica, the pest or weed control at 500 ppm is not below 90%.
On to `O=C(NCC1CCOC1)c1cc(Cc2ccsc2)on1` (stereo not drawn) [(309), N-(tetrahydrofuran-3-ylmethyl)-5-(3-thienylmethyl)isoxazole-3-carboxamide], for which the pest or weed control at 0.1 % strength with Blattella germanica [2] and in the assay on Culex pipiens pallens was not below 80% in each case. This molecule came in with a pest or weed control at 500 ppm in the assay with Musca domestica not below 90%.
Consider `COc1ccc(Cc2cc(C(=O)NCC3CCOC3)no2)cc1` (stereo not drawn) [(314), N-(tetrahydrofuran-3-ylmethyl)-5-(4-methoxybenzyl)isoxazole-3-carboxamide], for which the pest or weed control at 0.1 % strength in the assay with Blattella germanica [2] and in the assay with Culex pipiens pallens was not below 80% in each case. The pest or weed control at 500 ppm in the assay on Musca domestica is not below 90%.
`O=C(NCC1CCOC1)c1cc(Cc2ccc(F)cc2)on1` (stereo not drawn) [(319), N-(tetrahydrofuran-3-ylmethyl)-5-(4-fluorobenzyl)isoxazole-3-carboxamide]: the pest or weed control at 0.1 % strength in the assay on Blattella germanica [2] and in the assay on Culex pipiens pallens was not below 80% in each case. The same molecule gave a pest or weed control at 500 ppm with Musca domestica not below 90%.
For the molecule `O=C(NCC1CCOC1)c1cc(Cc2ccc(Cl)cc2)on1` (stereo not drawn) [(322), N-(tetrahydrofuran-3-ylmethyl)-5-(4-chlorobenzyl)isoxazole-3-carboxamide], the pest or weed control at 0.1 % strength with Blattella germanica [2] and in the assay with Culex pipiens pallens was not below 80% throughout. For the same molecule, the pest or weed control at 500 ppm with Musca domestica was not below 90%.
For `O=C(NCC1CCOC1)c1cc(Cc2ccc(F)c(F)c2F)on1` (stereo not drawn) [(324), N-(tetrahydrofuran-3-ylmethyl)-5-(2,3,4-trifluorobenzyl)isoxazole-3-carboxamide], the pest or weed control at 0.1 % strength with Blattella germanica [2] and with Culex pipiens pallens was not below 80% each time. This molecule yielded a pest or weed control at 500 ppm in the assay on Musca domestica not below 90%.
As to `O=C(NCC1COC1)c1cc(COCc2ccccc2)on1` [(337), N-(oxetan-3-ylmethyl)-5-benrzyloxymethylisoxazole-3-carboxamide], the pest or weed control at 2 % strength in the assay with Blattella germanica [1] is not below 80%. Also, in the assay with Culex pipiens pallens, the pest or weed control at 0.1 % strength was not below 80%.
